Assay results as given in the supplement of paper PMC8617591.

Assays:
[1] = system: Mycobacterium tuberculosis Erdman (autoluminescent); test: total FIC50 (Loewe) at 50% inhibition, three-drug combination (log2); higher = more antagonistic
Procedure: (§1)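 DiaMOND equipotent three-drug combination dose responses (10 doses, 1.5- or 2-fold spacing, centred on IC90) against autoluminescent M. tuberculosis Erdman in 8 in vitro models. Read-out is OD600, or luminescence for the intracellular and dormancy models, normalised to untreated wells. Hill-fit Einf, AUC25 and GRinf are potency metrics; FIC50 and FIC90 are total Loewe fractional inhibitory concentrations as log2 (negative = synergy).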

[2] = system: Mycobacterium tuberculosis Erdman (autoluminescent); test: total FIC90 (Loewe) at 90% inhibition, three-drug combination (log2); higher = more antagonistic
Procedure: as §1

[3] = system: Mycobacterium tuberculosis Erdman (autoluminescent); test: Einf, fitted maximum growth inhibition of three-drug combination (fraction); higher = stronger maximal inhibition
Procedure: as §1

[4] = system: Mycobacterium tuberculosis Erdman (autoluminescent); test: AUC25, normalised area under dose response up to IC25 (three-drug combination) (fraction (0-1)); higher = more potent at low dose
Procedure: as §1

[5] = system: Mycobacterium tuberculosis Erdman (autoluminescent); test: GRinf, maximum normalised growth rate inhibition (three-drug combination) (unitless (-1 to 1)); higher = less effect (negative = killing)
Procedure: as §1

[6] = in vitro model: acidic pH 5.7, time point: constant (~7 days, model-specific)
[7] = in vitro model: acidic pH 5.7, time point: terminal (~4-5 doublings, model-specific)
[8] = in vitro model: butyrate, time point: constant (~7 days, model-specific)
[9] = in vitro model: butyrate, time point: terminal (~4-5 doublings, model-specific)
[10] = in vitro model: cholesterol 0.05 mM, time point: constant (~7 days, model-specific)
[11] = in vitro model: cholesterol 0.05 mM, time point: terminal (~4-5 doublings, model-specific)
[12] = in vitro model: cholesterol-high 0.2 mM, time point: constant (~7 days, model-specific)
[13] = in vitro model: cholesterol-high 0.2 mM, time point: terminal (~4-5 doublings, model-specific)
[14] = in vitro model: dormancy (butyrate + nitrate, low O2), time point: constant (~7 days, model-specific)
[15] = in vitro model: dormancy (butyrate + nitrate, low O2), time point: terminal (~4-5 doublings, model-specific)
[16] = in vitro model: standard 7H9 glycerol, time point: constant = terminal
[17] = in vitro model: valerate, time point: constant (~7 days, model-specific)
[18] = in vitro model: valerate, time point: terminal (~4-5 doublings, model-specific)
[19] = in vitro model: intracellular J774, time point: constant = terminal

## COc1nc2ccc(Br)cc2cc1[C@@H](c1ccccc1)[C@@](O)(CCN(C)C)c1cccc2ccccc12 [bedaquiline] + CC[C@@H](CO)NCCN[C@@H](CC)CO [ethambutol] + CO[C@H]1/C=C/O[C@@]2(C)Oc3c(C)c(O)c4c(O)c(c(/C=N/N5CCN(C)CC5)c(O)c4c3C2=O)NC(=O)/C(C)=C\C=C\[C@H](C)[C@H](O)[C@@H](C)[C@@H](O)[C@@H](C)[C@H](OC(C)=O)[C@@H]1C [rifampicin]
[1]; [6]
  total FIC50: 0.255
[1]; [7]
  total FIC50: 0.433
[1]; [8]
  total FIC50: 0.298
[1]; [9]
  total FIC50: 0.293
[1]; [10]
  total FIC50: 0.99
[1]; [11]
  total FIC50: 0.757
[1]; [12]
  total FIC50: 0.869
[1]; [13]
  total FIC50: 0.649
[1]; [14]
  total FIC50: 0.302
[1]; [15]
  total FIC50: 0.467
[1]; [16]
  total FIC50: 0.162
[1]; [17]
  total FIC50: 0.575
[1]; [18]
  total FIC50: 0.707
[2]; [7]
  total FIC90: -0.353
[2]; [9]
  total FIC90: -0.34
[2]; [13]
  total FIC90: 0.577
[2]; [15]
  total FIC90: -0.773
[2]; [19]
  total FIC90: -2.17
[2]; [18]
  total FIC90: -0.531
[3]; [6]
  Einf: 0.925
[3]; [7]
  Einf: 0.975
[3]; [8]
  Einf: 0.947
[3]; [9]
  Einf: 0.977
[3]; [10]
  Einf: 0.696
[3]; [11]
  Einf: 0.866
[3]; [12]
  Einf: 0.972
[3]; [13]
  Einf: 0.999
[3]; [14]
  Einf: 0.848
[3]; [15]
  Einf: 0.985
[3]; [19]
  Einf: 0.946
[3]; [16]
  Einf: 0.936
[3]; [17]
  Einf: 0.904
[3]; [18]
  Einf: 0.944
[4]; [6]
  AUC25: 0.101
[4]; [7]
  AUC25: 0.0469
[4]; [8]
  AUC25: 0.0854
[4]; [9]
  AUC25: 0.0653
[4]; [10]
  AUC25: 0.0934
[4]; [11]
  AUC25: 0.0802
[4]; [12]
  AUC25: 0.0442
[4]; [13]
  AUC25: 0.0471
[4]; [14]
  AUC25: 0.0847
[4]; [15]
  AUC25: 0.0367
[4]; [16]
  AUC25: 0.0718
[4]; [17]
  AUC25: 0.0696
[4]; [18]
  AUC25: 0.0304
[5]; [6]
  GRinf: -0.517
[5]; [7]
  GRinf: -0.16
[5]; [8]
  GRinf: -0.116
[5]; [9]
  GRinf: -0.0944
[5]; [10]
  GRinf: -0.186
[5]; [11]
  GRinf: -0.177
[5]; [12]
  GRinf: -0.609
[5]; [13]
  GRinf: -0.732
[5]; [14]
  GRinf: 0.506
[5]; [15]
  GRinf: -0.0366
[5]; [19]
  GRinf: -0.188
[5]; [16]
  GRinf: -0.0564
[5]; [17]
  GRinf: -0.043
[5]; [18]
  GRinf: -0.0659

## COc1nc2ccc(Br)cc2cc1[C@@H](c1ccccc1)[C@@](O)(CCN(C)C)c1cccc2ccccc12 [bedaquiline] + CC[C@@H](CO)NCCN[C@@H](CC)CO [ethambutol] + COc1c(N2C[C@@H]3CCCN[C@@H]3C2)c(F)cc2c(=O)c(C(=O)O)cn(C3CC3)c12 [moxifloxacin]
[1]; [6]
  total FIC50: 0.542
[1]; [7]
  total FIC50: 0.896
[1]; [8]
  total FIC50: 0.634
[1]; [9]
  total FIC50: 0.608
[1]; [10]
  total FIC50: 0.605
[1]; [11]
  total FIC50: 1.36
[1]; [12]
  total FIC50: 1.13
[1]; [13]
  total FIC50: 1.33
[1]; [14]
  total FIC50: 1.02
[1]; [15]
  total FIC50: 0.343
[1]; [16]
  total FIC50: 0.482
[1]; [17]
  total FIC50: 0.726
[1]; [18]
  total FIC50: 0.757
[2]; [7]
  total FIC90: 0.318
[2]; [9]
  total FIC90: 0.135
[2]; [11]
  total FIC90: 0.517
[2]; [13]
  total FIC90: 1.07
[2]; [15]
  total FIC90: 0.644
[2]; [19]
  total FIC90: -0.597
[2]; [16]
  total FIC90: 0.479
[2]; [18]
  total FIC90: 0.289
[3]; [6]
  Einf: 0.818
[3]; [7]
  Einf: 0.968
[3]; [8]
  Einf: 0.943
[3]; [9]
  Einf: 0.976
[3]; [10]
  Einf: 0.746
[3]; [11]
  Einf: 0.902
[3]; [12]
  Einf: 0.947
[3]; [13]
  Einf: 1
[3]; [14]
  Einf: 0.884
[3]; [15]
  Einf: 0.987
[3]; [19]
  Einf: 0.951
[3]; [16]
  Einf: 0.955
[3]; [17]
  Einf: 0.906
[3]; [18]
  Einf: 0.939
[4]; [6]
  AUC25: 0.0871
[4]; [7]
  AUC25: 0.0798
[4]; [8]
  AUC25: 0.0669
[4]; [9]
  AUC25: 0.0565
[4]; [10]
  AUC25: 0.0787
[4]; [11]
  AUC25: 0.0645
[4]; [12]
  AUC25: 0.0262
[4]; [13]
  AUC25: 0.0315
[4]; [14]
  AUC25: 0.14
[4]; [15]
  AUC25: 0.114
[4]; [16]
  AUC25: 0.0556
[4]; [17]
  AUC25: 0.0922
[4]; [18]
  AUC25: 0.0526
[5]; [6]
  GRinf: -0.484
[5]; [7]
  GRinf: -0.239
[5]; [8]
  GRinf: -0.107
[5]; [9]
  GRinf: -0.091
[5]; [10]
  GRinf: -0.304
[5]; [11]
  GRinf: -0.132
[5]; [12]
  GRinf: -0.654
[5]; [13]
  GRinf: -0.729
[5]; [14]
  GRinf: 0.39
[5]; [15]
  GRinf: -0.126
[5]; [19]
  GRinf: -0.177
[5]; [16]
  GRinf: -0.0832
[5]; [17]
  GRinf: -0.0299
[5]; [18]
  GRinf: -0.0195

## COc1nc2ccc(Br)cc2cc1[C@@H](c1ccccc1)[C@@](O)(CCN(C)C)c1cccc2ccccc12 [bedaquiline] + CC[C@@H](CO)NCCN[C@@H](CC)CO [ethambutol] + NC(=O)c1cnccn1 [pyrazinamide]
[1]; [6]
  total FIC50: -0.0886
[1]; [7]
  total FIC50: 0.412
[1]; [8]
  total FIC50: 0.369
[1]; [9]
  total FIC50: 0.327
[1]; [11]
  total FIC50: 1.2
[1]; [12]
  total FIC50: 1.15
[1]; [13]
  total FIC50: 1
[1]; [14]
  total FIC50: 0.665
[1]; [15]
  total FIC50: 0.467
[1]; [16]
  total FIC50: 0.382
[1]; [17]
  total FIC50: 0.734
[1]; [18]
  total FIC50: 0.806
[2]; [7]
  total FIC90: -0.299
[2]; [9]
  total FIC90: -0.0291
[2]; [13]
  total FIC90: 1.04
[2]; [15]
  total FIC90: 0.729
[2]; [19]
  total FIC90: -0.0128
[2]; [18]
  total FIC90: -0.297
[3]; [6]
  Einf: 0.873
[3]; [7]
  Einf: 0.97
[3]; [8]
  Einf: 0.958
[3]; [9]
  Einf: 0.98
[3]; [10]
  Einf: 0.735
[3]; [11]
  Einf: 0.942
[3]; [12]
  Einf: 0.954
[3]; [13]
  Einf: 1
[3]; [14]
  Einf: 0.818
[3]; [15]
  Einf: 0.99
[3]; [19]
  Einf: 0.975
[3]; [16]
  Einf: 0.924
[3]; [17]
  Einf: 0.901
[3]; [18]
  Einf: 0.954
[4]; [6]
  AUC25: 0.0897
[4]; [7]
  AUC25: 0.0657
[4]; [8]
  AUC25: 0.0804
[4]; [9]
  AUC25: 0.0692
[4]; [10]
  AUC25: 0.0893
[4]; [11]
  AUC25: 0.113
[4]; [12]
  AUC25: 0.0376
[4]; [13]
  AUC25: 0.0549
[4]; [14]
  AUC25: 0.11
[4]; [15]
  AUC25: 0.106
[4]; [16]
  AUC25: 0.0685
[4]; [17]
  AUC25: 0.0945
[4]; [18]
  AUC25: 0.0602
[5]; [6]
  GRinf: -0.571
[5]; [7]
  GRinf: -0.4
[5]; [8]
  GRinf: -0.23
[5]; [9]
  GRinf: -0.518
[5]; [10]
  GRinf: -0.275
[5]; [11]
  GRinf: -0.531
[5]; [12]
  GRinf: -0.425
[5]; [13]
  GRinf: -0.723
[5]; [14]
  GRinf: 0.489
[5]; [15]
  GRinf: -0.119
[5]; [19]
  GRinf: -0.486
[5]; [16]
  GRinf: 0.0247
[5]; [17]
  GRinf: -0.0908
[5]; [18]
  GRinf: -0.0443
